Patent US20250241294A1, “ITACONATE PRESERVATION SOLUTION” (University Health Network, priority 2024, published 2025)

Experiments:
[1] = system: Human BEAS-2B bronchial epithelial cells; assay: BEAS-2B cold ischemia-reperfusion injury model: cell morphology; assay type: cell-based
Protocol: (§1) Human BEAS-2B bronchial epithelial cells were cultured until subconfluence in 96-well plates with standard media (DMEM+10% FBS). […] These parameters simulated the real-life environment of standard lung preservation.
(§2) This was followed by up to 48 h of warm reperfusion at 37° C. in regular cell culture media (at 5% CO2). Regular cell media was used as negative control for the simulated cold ischemia, and regular LPD was used as positive control. Upon switching to LPD, the four different itaconate derivatives in the three different concentrations were assessed and compared to regular LPD and standard media during cold static preservation. Confluence and apoptosis measurements (based on Caspase3/7 dye) were taken by serial imaging in an Incucyte S3 Live Cell imaging device to assess the efficacy of the itaconate-containing solutions in preserving each cell culture.
(§3) Four different itaconate molecules were tested, each in three different dosages and four replicates: underivatized itaconic acid (ITA) at 5 mM, 7.5 mM, and 10 mM; pH-corrected itaconic acid (NaOH-ITA) at 5 mM, 7.5 mM, and 10 mM; dimethyl itaconate (DI) at 0.125 mM, 0.25 mM, and 0.5 mM; and 4-octyl itaconate (4OI) at 0.125 mM, 0.25 mM, and 0.5 mM. […] Upon switching to LPD, the four different itaconate molecules in the three different concentrations each were assessed and compared to regular LPD (positive control) and standard media (negative control) during cold static preservation. Four replicates for each condition were used.
For example, FIG. 6B illustrates the cell morphology of cells exposed to i) LPD (positive control), ii) DMEM (negative control), iii) ITA 10 mM, iv) DI 0.25 mM, and v) 4OI 0.25 mM following cold ischemia. FIG. 6C illustrates the cell morphology of these groups at reperfusion at t=22 h. […] The cells cultured in DMEM (the negative control) died during cold ischemia and were washed away during reperfusion, as shown by a comparison of FIG. 6B to FIG. 6C.

[2] = system: Human BEAS-2B bronchial epithelial cells; assay: BEAS-2B cold ischemia-reperfusion injury model: confluence by Incucyte imaging; assay type: cell-based; settings: for confluence, mean percent difference compared to standard LPD alone: immediately upon reperfusion
Protocol: as §1, §2, §3
FIG. 5D illustrates the cell confluence results of the in vitro phase. T=0 represents the cell confluence reached before the 18-hour period of cold ischemia described with respect to FIG. 5A. Cells were cultured until subconfluence (shown at t=4 h in FIG. 5D), followed by cold ischemia from t=4 h to t=22 h. T=22 h represents the beginning of warm reperfusion as described with respect to FIG. 5A.

[3] = system: inflammatory cytokines in both tissue and perfusate; assay: Porcine EVLP model: cytokine analysis of lung tissue and perfusate; assay type: in vivo, Yorkshire pigs; settings: DI 0.25 mM flush vs control
Protocol: (§4) Lungs were surgically harvested from Yorkshire pigs weighing 31-38 kg. The dimethyl itaconate (DI) 0.25 mM solution was selected for testing in vivo due to positive performance in vitro. The lungs were randomized to be flushed with a flush solution of Low Potassium Dextran (LPD) in two groups, with or without 0.25 mM dimethyl itaconate (DI) (n=4 pairs of lungs per group). For flushing, 2 L of flush solution were administered antegrade, and […] was administered retrograde prior to lung static preservation. Retrograde flush solution was collected in a sterile bag and used to coat the lungs during the preservation period. When appropriate (based on assigned randomization), DI was added to all 3 L of flush solution. Surgical teams were blinded to the intervention.
(§5) Still referring to FIG. 5C, lungs were subsequently preserved at 4° C. for an extended period of 36 h, then reperfused on EVLP for 6 h. EVLP allows lungs to be ventilated, reperfused to normothermia, and evaluated in an extracorporeal platform. EVLP performance was measured because it strongly correlates with post-transplant, recipient performance. Multiple physiological parameters of lung function were measured, and perfusate and tissue biopsies were collected. The measured physiological parameters included plateau airway pressure, change in partial pressure of oxygen delta PO2 (left atrium PO2—pulmonary artery PO2), static compliance, pulmonary vascular resistance (PVR), total perfusate loss, and wet to dry (W/D) ratios.
(§6) Statistical analysis was performed with GraphPad prism 9.0 (GraphPad Software, San Diego, CA). Two-way repeated measures ANOVA with Dunn's post-test based on the distribution of data and Mann-Whitney test were used for comparison between groups, when appropriate. Values are presented as mean±SEM unless stated otherwise, and p values <0.05 are considered statistically significant.

[4] = system: Human bronchiole epithelial cells (BEAS2B); assay: Intracellular free ferrous iron (FerroOrange) after cold storage; assay type: cell-based; settings: LPD + 0.25 mM DI vs LPD alone; 24 h at 10° C.; p<0.001
Protocol: This example aimed to determine whether an organ preservation solution having 0.25 mM dimethyl itaconate (DI) could have anti-ferroptotic properties. Human bronchiole epithelial cells (BEAS2B) were cultured to sub-confluence in standard culture medium (DMEM+10% fetal bovine serum) at 37° C. Upon reaching sub-confluence, the culture medium was aspirated completely, and cells were washed twice with phosphate-buffered saline (PBS) before adding cooled LPD or LPD supplemented with DI at a concentration of 0.25 mM. Cells were then placed in a 10° C. refrigeration unit for 24 hours. […] To measure intracellular iron between treatment groups after storage for 24 h at 10° C., FerroOrange, a fluorescent probe for free ferrous ions (Fe2+), was used according to the manufacturer's protocol (Dojindo Molecular Laboratories, MD, USA).
A […] FerroOrange solution was prepared in serum-free DMEM. Cells were washed with serum-free DMEM three times before being exposed to FerroOrange solution. The plate was then stored at 37° C. for 30 minutes. Fluorescence was quantified with a Cytation microplate reader (BioTek, VT, USA), with the top reading mode at an excitation wavelength of 543 nm and emission wavelength of 580 nm.

pig lungs = assay: Porcine ex vivo lung perfusion (EVLP) model of lung transplantation: lung physiology; set-up: species or system Yorkshire pigs
Protocol: as §4, §5, §6

[5] = system: Human BEAS-2B bronchial epithelial cells; assay: BEAS-2B cold ischemia-reperfusion injury model: apoptosis (Caspase3/7 dye); assay type: cell-based; settings: immediately upon reperfusion, p<0.001
Protocol: as §1
This was followed by up to 48 h of warm reperfusion at 37° C. in regular cell culture media (at 5% CO2). Regular cell media was used as negative control for the simulated cold ischemia, and regular LPD was used as positive control. Upon switching to LPD, the four different itaconate derivatives in the three different concentrations were assessed and compared to regular LPD and standard media during cold static preservation. […]
as §3, with “Four replicates for each condition were used.” left out

C=C(CC(=O)OCCCCCCCC)C(=O)O [4OI, 4-octyl itaconate]
cell morphology ([1]; 0.25 mM and 0.5 mM 4OI in LPD, 18 h cold ischemia at 4° C., reperfusion): morphological cell injury to a lower extent
cell confluence compared to standard LPD alone or DI ([2]; 4OI in LPD, 18 h cold ischemia, reperfusion): did not perform favorably

C=C(CC(=O)OC)C(=O)OC [DI, dimethyl itaconate]
cellular morphology ([1]; DI in LPD, 18 h cold ischemia at 4° C., reperfusion (FIG. 6D)): did not indicate any signs of shrinkage, pyknosis, or karyorrhexis
IL-6 expression levels in the perfusate ([3]; after 6 hours, p<0.05): significantly reduced
IL-8 expression levels in the perfusate ([3]; after 6 hours, p<0.05): reduced IL-8 expression levels
perfusate expression of TNF-α ([3]; after 6 hours, p<0.05): significantly reduced perfusate expression of TNF-α
IL-10 expression levels in the perfusate ([3]; after 6 hours, p<0.05 (FIG. 5M)): reduced IL-10 expression levels
tissue IL-8 expression ([3]; lung tissue, p<0.0001): reduced tissue IL-8 expression
confluence ranking among tested solutions ([2]; DI 0.125 mM): highest confluence
confluence, mean percent difference compared to standard LPD alone ([2]; DI 0.125 mM, CI 2.0-13.7, p<0.01): 7.84%
confluence ranking among tested solutions ([2]; DI 0.25 mM): highest confluence
confluence, mean percent difference compared to standard LPD alone ([2]; DI 0.25 mM, CI 12.34-0.14, p<0.05): 6.24%
confluence compared to positive control (LPD) ([2]; after 24 h of reperfusion, p<0.001): differences remained favoring DI
intracellular iron (FerroOrange fluorescence) [4]: significantly reduced amount of intracellular iron
areas of edema on dorsal lung surface (pig lungs; flush LPD with 0.25 mM DI vs LPD, 36 h at 4° C., after 6 h of perfusion): more pronounced in the control group when compared to the DI group
plateau airway pressures (pig lungs; flush LPD+DI 0.25 mM vs LPD, 36 h at 4° C., 6 h EVLP, p<0.0001): lower
delta PO2 (left atrium PO2—pulmonary artery PO2) (pig lungs; flush LPD+DI 0.25 mM vs LPD, 36 h at 4° C., 6 h EVLP, p<0.01): higher
static compliances (pig lungs; flush LPD+DI 0.25 mM vs LPD, 36 h at 4° C., 6 h EVLP, p<0.05): higher
total perfusate loss (pig lungs; flush LPD+DI 0.25 mM vs control, 6 h EVLP, not statistically significant): trend toward reduced total perfusate loss
wet-to-dry ratios (pig lungs; flush LPD+DI 0.25 mM vs control, trend, not statistically significant): reduced wet-to-dry ratios

C=C(CC(=O)O)C(=O)O [ITA, itaconic acid]
cell morphology ([1]; ITA in LPD (10 mM shown), 18 h cold ischemia at 4° C., 50% O2, compared to LPD): cell shrinkage, nuclear pyknosis (condensation), and start of karyorrhexis (fragmentation), consistent with irreversible cell injury
confluence over reperfusion ([2]; ITA in LPD, over 48 hours of reperfusion at 37° C.): stable confluence
apoptosis counts compared to positive controls ([5]; ITA in LPD): elevated apoptosis counts

C=C(CC(=O)O)C(=O)O [NaOH-ITA, itaconic acid]
cell morphology ([1]; higher concentrations of NaOH-ITA in LPD, after 18 h cold ischemia at 4° C.): presented morphological changes
apoptosis counts compared to positive controls ([5]; higher concentrations of NaOH-ITA): elevated apoptosis counts
